Data reported in US8772505B2, “Antiviral compounds composed of three aligned aryl moieties to treat diseases such as hepatitis C” (Merck Sharp & Dohme Corp., priority 2009, dated 2014).

tested on: HCV replicon; experiment: Cell-based HCV replicon assay (EC90); settings: Hepatitis C virus, 72 h; replicon RNA by real time PCR (Taqman), day 3; class symbols; read-out: Biological Activity (EC90, HCV replicon)
Experimental: To measure cell-based anti-HCV activity of selected compounds of the present invention, replicon cells were seeded at 5000 cells/well in 96-well collagen I-coated Nunc plates in the presence of the test compound. Various concentrations of test compound, typically in 10 serial 2-fold dilutions, were added to the assay mixture, with the starting concentration ranging from 250 μM to 1 μM. The final concentration of DMSO was 0.5%, fetal bovine serum was 5%, in the assay media. Cells were harvested on day 3 by the addition of 1× cell lysis buffer (Ambion cat #8721). The replicon RNA level was measured using real time PCR (Taqman assay). The amplicon was located in 5B. The PCR primers were: 5B.2F, ATGGACAGGCGCCCTGA (SEQ. ID NO. 1); 5B.2R, […] (SEQ. ID NO. 2); the probe sequence was FAM-labeled CACGCCATGCGCTGCGG (SEQ. ID NO. 3). GAPDH RNA was used as endogenous control and was amplified in the same reaction as NS5B (multiplex PCR) using primers and VIC-labeled probe recommended by the manufacturer (PE Applied Biosystem). The real-time RT-PCR reactions were run on ABI PRISM 7900HT Sequence Detection System using the following program: 48° C. for 30 min, 95° C. for 10 min, 40 cycles of 95° C. for 15 sec, 60° C. for 1 min. The ACT values (CT5B-CTGAPDH) were plotted against the concentration of test compound and fitted to the sigmoid dose-response model using XLfit4 (MDL). EC50 was defined as the concentration of inhibitor necessary to achieve ΔCT=1 over the projected baseline; EC90 the concentration necessary to achieve ΔCT=3.2 over the baseline. Alternatively, to quantitate the absolute amount of replicon RNA, a standard curve was established by including serially diluted T7 transcripts of replicon RNA in the Taqman assay. All Taqman reagents were from PE Applied Biosystems. Such an assay procedure was described in detail in e.g. Malcolm et al., Antimicrobial Agents and Chemotherapy 50: 1013-1020 (2006).
HCV replicon assay data was calculated for selected compounds of the present invention using this method.

SMILES | EC90 [nM]
CC(=O)N1CCC[C@H]1c1nc2ccc(-c3ccc(-c4ccc5nc([C@@H]6CCCN6C(C)=O)[nH]c5c4)nc3)cc2[nH]1 [Compound 42] | > 1000
c1cc(-c2ccc3nc([C@@H]4CCCN4)[nH]c3c2)ncc1-c1ccc2nc([C@@H]3CCCN3)[nH]c2c1 [Compound 43] | > 1000
COC(=O)N[C@H](C(=O)N1CCC[C@H]1c1nc2ccc(-c3ccc(-c4ccc5nc([C@@H]6CCCN6C(=O)[C@@H](NC(=O)OC)C(C)C)[nH]c5c4)nc3)cc2[nH]1)C(C)C [Compound 44] | < 1
COC(=O)N[C@H](C(=O)N1CCC[C@H]1c1nc2ccc(-c3ccc(-c4ccc5nc([C@@H]6CCCN6C(=O)[C@@H](NC(=O)OC)C(C)C)[nH]c5c4)s3)cc2[nH]1)C(C)C [Compound 55] | < 1
COC(=O)N[C@H](C(=O)N1CCC[C@H]1c1nc2ccc(-c3ccc(-c4ccc5nc([C@@H]6CCCN6C(=O)[C@@H](NC(=O)OC)C(C)C)[nH]c5c4)c4ccccc34)cc2[nH]1)C(C)C [Compound 59] | < 1
COC(=O)N[C@H](C(=O)N1CCC[C@H]1c1nc2ccc(-c3cnc(-c4ccc5nc([C@@H]6CCCN6C(=O)[C@@H](NC(=O)OC)C(C)C)[nH]c5c4)cn3)cc2[nH]1)C(C)C [Compound 64] | < 1
COC(=O)N[C@H](C(=O)N1CCC[C@H]1c1nc2cc(F)c(-c3cc(C)c(-c4cc5[nH]c([C@@H]6CCCN6C(=O)[C@@H](NC(=O)OC)C(C)C)nc5cc4F)s3)cc2[nH]1)C(C)C [Compound 119] | < 1
CCCCc1cc(-c2ccc3nc([C@@H]4CCCN4C(=O)[C@@H](NC(=O)OC)C(C)C)[nH]c3c2)sc1-c1ccc2nc([C@@H]3CCCN3C(=O)[C@@H](NC(=O)OC)C(C)C)[nH]c2c1 [Compound 121] | < 1
COC(=O)N[C@H](C(=O)N1CCC[C@H]1c1nc2ccc(-c3cc(-c4ccccc4)c(-c4ccc5nc([C@@H]6CCCN6C(=O)[C@@H](NC(=O)OC)C(C)C)[nH]c5c4)s3)cc2[nH]1)C(C)C [Compound 128] | < 1
COC(=O)N[C@H](C(=O)N1CCC[C@H]1c1nc2ccc(-c3ccc(-c4ccc5nc([C@@H]6CCCN6C(=O)[C@@H](NC(=O)OC)C(C)C)[nH]c5c4)c(OC(F)(F)F)c3)cc2[nH]1)C(C)C [Compound 129] | < 1
COC(=O)N[C@H](C(=O)N1CCC[C@H]1c1nc2ccc(-c3ccc(-c4ccc5nc([C@@H]6CCCN6C(=O)[C@@H](NC(=O)OC)C(C)C)[nH]c5c4)c4c3ccn4C)cc2[nH]1)C(C)C [Compound 133] | < 1
[2H]C([2H])([2H])C([2H])(C([2H])([2H])[2H])[C@]([2H])(NC(=O)OC)C(=O)N1CCC[C@H]1c1nc2ccc(-c3ccc(-c4ccc5nc([C@@H]6CCCN6C(=O)[C@@]([2H])(NC(=O)OC)C([2H])(C([2H])([2H])[2H])C([2H])([2H])[2H])[nH]c5c4)c(OC(F)(F)F)c3)cc2[nH]1 [Compound 134] | < 1
[2H]C([2H])([2H])C([2H])(C([2H])([2H])[2H])[C@]([2H])(NC(=O)OC)C(=O)N1C([2H])([2H])C([2H])([2H])C([2H])([2H])[C@]1([2H])c1nc2ccc(-c3ccc(-c4ccc5nc([C@]6([2H])N(C(=O)[C@@]([2H])(NC(=O)OC)C([2H])(C([2H])([2H])[2H])C([2H])([2H])[2H])C([2H])([2H])C([2H])([2H])C6([2H])[2H])[nH]c5c4)c(OC(F)(F)F)c3)cc2[nH]1 [Compound 135] | < 1

same assay, conditions: Hepatitis C virus, 72 h; replicon RNA by real time PCR (Taqman), day 3; numeric, unit inferred; read-out: Biological Activity (EC90, HCV replicon)

SMILES | EC90 [nM]
C#CC[C@@H](NC(=O)OC)C(=O)N1CCC[C@H]1c1nc2ccc(-c3ccc(-c4ccc5nc([C@@H]6CCCN6C(=O)[C@@H](CC#C)NC(=O)OC)[nH]c5c4)s3)cc2[nH]1 [Compound 99] | 0.2
COC(=O)N[C@H](C(=O)N1CCC[C@H]1c1nc2ccc(-c3cc(C)c(-c4ccc5nc([C@@H]6CCCN6C(=O)[C@@H](NC(=O)OC)C(C)C)[nH]c5c4)s3)cc2[nH]1)C(C)C [Compound 103] | 0.005
COC(=O)N[C@H](C(=O)N1CCC[C@H]1c1nc2cc(F)c(-c3ccc(-c4cc5[nH]c([C@@H]6CCCN6C(=O)[C@@H](NC(=O)OC)C(C)C)nc5cc4F)s3)cc2[nH]1)C(C)C [Compound 115] | 0.003

same assay, conditions: Hepatitis C virus, 72 h; replicon RNA by real time PCR (Taqman), day 3; numeric; read-out: Biological Activity (EC90, HCV replicon)

SMILES | EC90 [nM]
CCCCc1cc(-c2ccc3nc([C@@H]4CCCN4)[nH]c3c2)sc1-c1ccc2nc([C@@H]3CCCN3)[nH]c2c1 [Compound 72] | 26
COC(=O)N[C@H](C(=O)N1CCC[C@H]1c1ncc(-c2ccc(-c3ccc4nc([C@@H]5CCCN5C(=O)[C@@H](NC(=O)OC)C(C)C)[nH]c4c3)[nH]c2=O)[nH]1)C(C)C [Compound 91] | 6

tested on: HCV replicon genotype 1b c16; experiment: HCV replicon assay, genotype 1b c16; format: cell-based; settings: Hepatitis C virus
Experimental: (§1) To measure cell-based anti-HCV activity of selected compounds of the present invention, replicon cells were seeded at 5000 cells/well in 96-well collagen I-coated Nunc plates in the presence of the test compound. Various concentrations of test compound, typically in 10 serial 2-fold dilutions, were added to the assay mixture, with the starting concentration ranging from 250 μM to 1 μM. The final concentration of DMSO was 0.5%, fetal bovine serum was 5%, in the assay media. Cells were harvested on day 3 by the addition of 1× cell lysis buffer (Ambion cat #8721). The replicon RNA level was measured using real time PCR (Taqman assay). The amplicon was located in 5B. The PCR primers were: 5B.2F, ATGGACAGGCGCCCTGA (SEQ. ID NO. 1); 5B.2R, […] (SEQ. ID NO. 2); the probe sequence was FAM-labeled CACGCCATGCGCTGCGG (SEQ. ID NO. 3). GAPDH RNA was used as endogenous control and was amplified in the same reaction as NS5B (multiplex PCR) using primers and VIC-labeled probe recommended by the manufacturer (PE Applied Biosystem). […] Alternatively, to quantitate the absolute amount of replicon RNA, a standard curve was established by including serially diluted T7 transcripts of replicon RNA in the Taqman assay. […]

SMILES | EC50 [nM]
COC(=O)N[C@H](C(=O)N1CCC[C@H]1c1nc2ccc(-c3ccc(-c4ccc5nc([C@@H]6CCCN6C(=O)[C@@H](NC(=O)OC)C(C)C)[nH]c5c4)c(OC(F)(F)F)c3)cc2[nH]1)C(C)C [Compound 129] | 0.003

tested on: HCV replicon genotype 1a 1A7; experiment: HCV replicon assay, genotype 1a 1A7; format: cell-based; settings: Hepatitis C virus
Experimental: as §1

SMILES | EC50 [nM]
COC(=O)N[C@H](C(=O)N1CCC[C@H]1c1nc2ccc(-c3ccc(-c4ccc5nc([C@@H]6CCCN6C(=O)[C@@H](NC(=O)OC)C(C)C)[nH]c5c4)c(OC(F)(F)F)c3)cc2[nH]1)C(C)C [Compound 129] | 0.05
